Molecular target: T1, Human PDE10 (Homo sapiens, UniProt Q9Y233)
T1 construct: purchased BPA Bioscience (so in the source)
Assay: Human PDE10 inhibitory effect (IMAP TR-FRET enzyme inhibition assay)
Assay type: biochemical
Details: PDE10 inhibitory activity, cAMP substrate
Method: (Evaluation of Enzyme Inhibitory Activity: Human PDE10 Inhibitory Effect)
IMAP TR-FRET Phosphodiersterase Evaluation Assay Kit (Molecular Device) was used for the measurement. Ten μL of a diluted test compound having each concentration and 5 μL of the enzyme PDE10 (BPA Bioscience) that had been diluted to 2 ng/mL with 1×IMAP Reaction Buffer (prepared with 5× included with the kit, 10 mM Tris-HCl, pH=7.2, 10 mM MgCl2, 0.05% NaN3, and 0.1% BSA) containing 0.1% BSA were added to a 384-well plate (Corning). The obtained mixture was then pre-incubated at room temperature for 5 minutes. Thereafter, 5 μL of cAMP substrate solution which was included with the kit and diluted to 400 nM with 1×IMAP Reaction Buffer containing 0.1% BSA, was added to the reaction solution, and the obtained mixture was reacted at room temperature for 60 minutes. Thereafter, 60 μL of an IMAP TR-FRET Binding solution included with the kit was further added to the reaction solution, and the obtained mixture was then left for 3 hours or more. Subsequently, using ARVO SX (PerkinElmer), the fluorescent intensity of Terbium (Emission=490 nm) and TR-FRET (Emission=520 nm) in the reaction solution were measured at an excitation wavelength of 340 nm, so as to calculate the amount of the generated 5′-AMP. The count of a well to which a solvent had been added instead of the test compound was set at 0%, and the count of a well to which the enzyme PDE10 had not been added was set at 100%. Thus, the inhibitory activity of each test compound was calculated.
The PDE10 inhibitory activity of the test compound was indicated with an IC50 value. […] The test compounds are shown in Table 3 (Table 3-1 and Table 3-2).

T1 sequence (Q9Y233 whole entry): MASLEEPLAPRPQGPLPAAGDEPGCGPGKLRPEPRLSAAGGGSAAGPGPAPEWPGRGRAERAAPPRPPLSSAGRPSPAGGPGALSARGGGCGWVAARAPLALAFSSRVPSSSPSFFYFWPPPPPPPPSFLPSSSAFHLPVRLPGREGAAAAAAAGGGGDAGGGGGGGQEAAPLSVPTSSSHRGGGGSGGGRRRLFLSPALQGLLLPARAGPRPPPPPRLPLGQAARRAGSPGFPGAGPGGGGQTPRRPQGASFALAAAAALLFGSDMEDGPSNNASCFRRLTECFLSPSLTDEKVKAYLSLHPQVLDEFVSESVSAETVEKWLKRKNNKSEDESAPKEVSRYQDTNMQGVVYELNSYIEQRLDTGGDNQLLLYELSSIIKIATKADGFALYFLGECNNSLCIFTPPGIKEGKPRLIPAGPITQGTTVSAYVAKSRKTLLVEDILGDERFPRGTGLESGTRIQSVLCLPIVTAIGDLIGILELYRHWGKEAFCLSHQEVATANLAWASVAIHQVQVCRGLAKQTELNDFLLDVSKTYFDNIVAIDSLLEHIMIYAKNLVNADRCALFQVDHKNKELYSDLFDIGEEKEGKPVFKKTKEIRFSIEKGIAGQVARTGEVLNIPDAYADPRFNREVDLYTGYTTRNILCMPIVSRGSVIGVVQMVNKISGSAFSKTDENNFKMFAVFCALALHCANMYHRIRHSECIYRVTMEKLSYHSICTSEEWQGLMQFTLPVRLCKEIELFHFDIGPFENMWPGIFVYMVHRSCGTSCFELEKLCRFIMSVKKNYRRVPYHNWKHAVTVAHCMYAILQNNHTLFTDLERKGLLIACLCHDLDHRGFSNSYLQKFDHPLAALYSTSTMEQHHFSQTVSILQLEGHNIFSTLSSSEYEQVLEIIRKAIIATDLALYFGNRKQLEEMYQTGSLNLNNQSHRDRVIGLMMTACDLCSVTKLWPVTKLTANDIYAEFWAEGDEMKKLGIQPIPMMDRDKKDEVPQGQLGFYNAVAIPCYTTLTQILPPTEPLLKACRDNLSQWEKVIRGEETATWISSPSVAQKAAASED

| Compound | IC50 [nM] |
| --- | --- |
| CC(=O)c1sc(C)nc1-c1cnn(C)c1C(=O)NC1CCn2nc(-c3ccccc3)nc2C1 (centres unmarked) [Example 5.30, 4-(5-acetyl-2-methylthiazol-4-yl)-1-methyl-N-(2-phenyl-5,6,7,8-tetrahydro-[1,2,4]triazolo[1,5-a]pyridin-7-yl)-1H-pyrazole-5-carboxamide] | 5 to 100 |
| Cc1nc(-c2cnn(C)c2C(=O)NC2CCn3nc(-c4ccccc4)nc3C2)c(C(C)O)s1 (centres unmarked) [Example 5.31, 4-(5-(1-hydroxyethyl)-2-methylthiazol-4-yl)-1-methyl-N-(2-phenyl-5,6,7,8-tetrahydro-[1,2,4]triazolo[1,5-a]pyridin-7-yl)-1H-pyrazole-5-carboxamide] | 5 to 100 |
| Cn1ncc(-c2nc(C(F)F)cs2)c1C(=O)NC1CCn2nc(-c3ccccc3F)nc2C1 (centres unmarked) [Example 5.32, 4-(4-(difluoromethyl)thiazol-2-yl)-N-(2-(2-fluorophenyl)-5,6,7,8-tetrahydro-[1,2,4]triazolo[1,5-a]pyridin-7-yl)-1-methyl-1H-pyrazole-5-carboxamide] | 5 to 100 |
| Cn1ncc(-c2nc(C(F)F)cs2)c1C(=O)NC1CCn2nc(-c3cccc(F)c3)nc2C1 (centres unmarked) [Example 5.33, 4-(4-(difluoromethyl)thiazol-2-yl)-N-(2-(3-fluorophenyl)-5,6,7,8-tetrahydro-[1,2,4]triazolo[1,5-a]pyridin-7-yl)-1-methyl-1H-pyrazole-5-carboxamide] | 5 to 100 |
| Cn1ncc(-c2nc(C(F)F)c(C3CC3)s2)c1C(=O)NC1CCn2nc(-c3ccc(F)cc3)nc2C1 (centres unmarked) [Example 5.35, 4-(5-cyclopropyl-4-(difluoromethyl)thiazol-2-yl)-N-(2-(4-fluorophenyl)-5,6,7,8-tetrahydro-[1,2,4]triazolo[1,5-a]pyridin-7-yl)-1-methyl-1H-pyrazole-5-carboxamide] | 5 to 100 |

The next lines start with the values.

| IC50 [nM] | Compound |
| --- | --- |
| 5 to 100 | Cn1ncc(-c2nc(C(F)F)c(Cl)s2)c1C(=O)NC1CCn2nc(-c3cccc(F)c3)nc2C1 (centres unmarked) [Example 5.37, 4-(5-chloro-4-(difluoromethyl)thiazol-2-yl)-N-(2-(3-fluorophenyl)-5,6,7,8-tetrahydro-[1,2,4]triazolo[1,5-a]pyridin-7-yl)-1-methyl-1H-pyrazole-5-carboxamide] |
| 5 to 100 | Cc1nc(-c2cnn(C)c2C(=O)NC2CCn3nc(-c4ccccc4)nc3C2)sc1C1CC1 (centres unmarked) [Example 5.38, 4-(5-cyclopropyl-4-methylthiazol-2-yl)-1-methyl-N-(2-phenyl-5,6,7,8-tetrahydro-[1,2,4]triazolo[1,5-a]pyridin-7-yl)-1H-pyrazole-5-carboxamide] |
| 5 to 100 | Cc1nc(-c2cnn(C)c2C(=O)NC2CCn3nc(-c4ccccc4)nc3C2)c(C)s1 (centres unmarked) [Example 5.39, 4-(2,5-dimethylthiazol-4-yl)-1-methyl-N-(2-phenyl-5,6,7,8-tetrahydro-[1,2,4]triazolo[1,5-a]pyridin-7-yl)-1H-pyrazole-5-carboxamide] |
| 5 to 100 | Cn1ncc(-c2cccc(C#N)n2)c1C(=O)NC1CCn2nc(-c3ccccc3)nc2C1 (centres unmarked) [Example 5.40, 4-(6-cyanopyridin-2-yl)-1-methyl-N-(2-phenyl-5,6,7,8-tetrahydro-[1,2,4]triazolo[1,5-a]pyridin-7-yl)-1H-pyrazole-5-carboxamide] |
| 5 to 100 | Cn1ncc(-c2nc(C#N)cs2)c1C(=O)NC1CCn2nc(-c3ccc(F)cc3)nc2C1 (centres unmarked) [Example 5.41, 4-(4-cyanothiazol-2-yl)-N-(2-(4-fluorophenyl)-5,6,7,8-tetrahydro-[1,2,4]triazolo[1,5-a]pyridin-7-yl)-1-methyl-1H-pyrazole-5-carboxamide] |
| 5 to 100 | Cn1ncc(-c2nc(C(F)F)c(C3CC3)s2)c1C(=O)NC1CCn2nc(-c3cccc(F)c3)nc2C1 (centres unmarked) [Example 5.42, 4-(5-cyclopropyl-4-(difluoromethyl)thiazol-2-yl)-N-(2-(3-fluorophenyl)-5,6,7,8-tetrahydro-[1,2,4]triazolo[1,5-a]pyridin-7-yl)-1-methyl-1H-pyrazole-5-carboxamide] |
